Assay results taken from patent publication US20260097022A1, “COMPOUNDS AND USES THEREOF” (Integrated Biosciences, Inc., priority 2023, published 2026).

Tests used:
[1] = system: etoposide-treated IMR-90 cells; assay: Etoposide-induced senescence model, resazurin cell viability (screen and dose-response); type: cell-based, human; conditions: for effect on Sncs and control cells versus DMSO: concentrations between 1.5 to 3 μM, 3 days
Method in brief: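 IMR-90 fibroblasts made senescent with 50 μM etoposide for 2 days, then 4 days recovery before plating. Compounds at 10 μM or 1 μM final (screen) or three-fold dilutions (1% DMSO) for 3 days, then 0.15 mM resazurin 1 day, fluorescence 550/590 nm. Viability expressed as fraction of untreated controls; biological duplicates.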

HEK293 cells = assay: Cytotoxicity against HEK293 cells (resazurin); type: cell-based, human; conditions: 3 days treatment, curve-fitting, two biological replicates
Protocol: (§1) Measuring cytotoxicity against HepG2 and HEK293 cells. Cytotoxicity in human embryonic kidney (HEK293) and liver carcinoma (HepG2) cells was assayed as above using a resazurin assay. Cells were obtained from ATCC (ATCC CRL-1573 and HB-8065), passaged <10 times, and grown in Dulbecco's modification of Eagle's Medium (DMEM: Corning 10^−013-CV) supplemented with 10% FBS and 1% penicillin-streptomycin. 99 μL of cells were plated into each well of a 96-well clear flat-bottom, black polystyrene tissue-culture-treated plate at a density of ˜10+ cells/well, and plates were incubated overnight for adhesion. The day after plating. 1 μL of each compound, prepared as two-fold serial dilutions of 5 mM stock solutions in DMSO, was added to each well. Cells were incubated for 3 days, after which resazurin was added to each well to a final concentration of 0.15 mM. After an additional 1 day of incubation, the fluorescence excitation/emission at 550/590 nm was read using a SpectraMax M3 plate reader. Experiments were performed in biological duplicate. IC50 values were determined by normalizing with respect to the fluorescence intensity values of untreated control cells on day 3, as described in Calculation of cellular viability values in dose-response curves above.

HepG2 cells = assay: Cytotoxicity against HepG2 cells (resazurin); type: cell-based, human; conditions: 3 days treatment, curve-fitting, two biological replicates
Protocol: as §1

Mcl-1 = Mcl-1 (Homo sapiens, UniProt Q07820); assay: Mcl-1 TR-FRET; type: binding
[2] = system: late-passage IMR-90 cells; assay: Replicative senescence model, resazurin cell viability; type: cell-based, human; conditions: early- versus late-passage IMR-90 cells
Protocol: Cell culture. Human lung fibroblast (IMR-90) cells were obtained from ATCC (CCL-186) and passaged less than 10 times (less than 30 population doublings) for all experiments described in this example, with the exception of high-passage cells used in the model of replicative senescence (see the section on Replicative senescence below). Cells were cultured in growth media comprising Eagle's Minimum Essential Medium (EMEM: ATCC 30-2003) supplemented with 10% fetal bovine serum (FBS: Thermo Fisher 16140071) and 1% penicillin-streptomycin (Thermo Fisher 15070063). Cells were incubated in a humidity-controlled incubator at 37° C., with 5% CO2. Cells were detached using trypsin-EDTA (0.05%; Gibco 25300120).
Cells were then plated as described below.
Chemical screening. For all screening experiments. 99 μL of cells were plated into each well of a 96-well clear flat-bottom, black polystyrene tissue-culture-treated plate (Corning 3904) at a density of ˜10+ cells/well. Plates were incubated overnight for adhesion. The day after plating. […] After an additional 1 day of incubation, the fluorescence excitation/emission at 550/590 nm was read using a SpectraMaxR M3 plate reader and manufacturer software (SoftMax Pro R 6). […]
Calculation of cellular viability values in dose-response curves. […] For each sample, the fluorescence intensity value was normalized by the mean of two untreated control values. […]

Bcl-XL = Bcl-XL (Homo sapiens, UniProt Q07817); assay: Bcl-XL TR-FRET; type: binding
BRD4 = BRD4 (Homo sapiens, UniProt O60885); assay: BRD4 inhibition; type: biochemical
[3] = ratio of IC50 values for vehicle- and etoposide-treated IMR-90 cells, 3 days treatment

Sequence of Mcl-1 (Q07820 whole entry, species assumed): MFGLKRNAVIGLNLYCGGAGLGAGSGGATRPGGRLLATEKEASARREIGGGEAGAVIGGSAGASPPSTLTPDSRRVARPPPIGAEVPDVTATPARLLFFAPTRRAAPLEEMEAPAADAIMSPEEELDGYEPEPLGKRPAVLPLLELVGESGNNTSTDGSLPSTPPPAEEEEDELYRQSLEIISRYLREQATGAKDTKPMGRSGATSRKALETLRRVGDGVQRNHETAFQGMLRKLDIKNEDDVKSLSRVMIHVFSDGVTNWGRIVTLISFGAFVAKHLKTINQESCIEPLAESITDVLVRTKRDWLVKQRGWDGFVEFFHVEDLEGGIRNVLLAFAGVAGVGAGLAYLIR
Sequence of Bcl-XL (Q07817 whole entry): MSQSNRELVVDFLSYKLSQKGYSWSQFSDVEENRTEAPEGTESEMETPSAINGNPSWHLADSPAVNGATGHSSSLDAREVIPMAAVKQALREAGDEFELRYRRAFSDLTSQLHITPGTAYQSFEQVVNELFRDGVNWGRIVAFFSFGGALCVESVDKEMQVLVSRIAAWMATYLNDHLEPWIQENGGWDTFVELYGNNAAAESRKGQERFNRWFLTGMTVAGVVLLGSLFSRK

Row | SMILES | effect on Sncs and control cells versus DMSO [1] | IC50 (HEK293 cells; Homo sapiens, HEK293, 72 h) [µM] | IC50 (HepG2 cells; Homo sapiens, HepG2, 72 h) [µM] | IC50 (Mcl-1) [µM] | Therapeutic Index (TI) ([1]; etoposide-induced senescence model, ratio of IC50 values between etoposide- and DMSO-treated IMR-90 fibroblasts) | Therapeutic Index (TI) [1, 3] | selectivity against late-passage Sncs compared with ABT-737 [2] | IC50 (HEK293 cells) [µM] | IC50 (HepG2 cells) [µM] | IC50 (Bcl-XL) [µM] | IC50 (BRD4) [µM]
1 | COc1ccc(C(=O)Nc2ccc3nc(SCC(=O)Nc4ccccc4F)sc3c2)cc1OC [compound 6] | selective elimination of Sncs and no difference in the viabilities of control cells | 21.4 | 421 | ≥ 100 | – | – | – | – | – | – | –
2 | Cc1ccccc1C(=O)Nc1ccc2nc(SCC(=O)Nc3ccccc3)sc2c1 [compound 19] | selective elimination of Sncs and no difference in the viabilities of control cells | 160 | 383 | – | +++ (compounds with a TI of >5 were labeled as +++) | 4.7 | less | – | – | – | –
3 | O=C(Nc1ccc(S(=O)(=O)Nc2ncccn2)cc1)c1ccc(-c2ccccc2)cc1 [BRD-K20733377] | selective elimination of Sncs and no difference in the viabilities of control cells | – | – | – | – | 8.3 | similarly selective | 51.1 | 70.3 | ~1 | ~10
